Test results as given in patent US9656990B2, “Cathepsin cysteine protease inhibitors” (Merck Sharp & Dohme Corp., priority 2014, dated 2017).

What was measured:
human cathepsin F = target: T1, human cathepsin F (Homo sapiens, UniProt Q9UBX1); assay: Cathepsin F Assay; format: biochemical; settings: IP from dose response curve; Z-Phe-Arg-AMC substrate, pH 5.5; read-out: hCat F (IP (nM))
T1 sequence (Q9UBX1 271-484): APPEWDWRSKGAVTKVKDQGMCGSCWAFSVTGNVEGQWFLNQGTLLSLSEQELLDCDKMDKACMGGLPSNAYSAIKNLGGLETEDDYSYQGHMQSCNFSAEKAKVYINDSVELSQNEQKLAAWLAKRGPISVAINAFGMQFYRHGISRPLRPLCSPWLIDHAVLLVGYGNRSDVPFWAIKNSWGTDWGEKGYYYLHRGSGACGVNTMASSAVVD
Method: Serial dilutions (1/3) from 500 μM down to 0.025 μM of test compounds were prepared in dimethyl sulfoxide (DMSO). Then 0.5 μL of DMSO from each dilution were added to 18.75 μL of assay buffer (MES, 50 mM (pH 5.5); EDTA, 2.5 mM; DTT, 2.5 mM and 10% DMSO) containing human cathepsin F (10 nM) in assay buffer solution. The assay solutions were mixed for 5-10 seconds on a shaker plate and incubated for 15 minutes at room temperature. Z-Phe-Arg-AMC (8 μM) in 6.25 μL of assay buffer was added to the assay solutions. Hydrolysis of the coumarin leaving group (AMC) was followed by spectrofluorometry (Exλ=360 nm; Emλ=460 nm) for 20 minutes. Percent of inhibition were calculated by fitting experimental values to standard mathematical model for dose response curve.

human cathepsin K = human cathepsin K (UniProt P43236, Y175D/V274L, species not given); assay: Cathepsin K Assay; format: biochemical; settings: IP from dose response curve; Z-Leu-Arg-AMC substrate, pH 5.5; read-out: hrbCat K (IP (nM))

Structure (SMILES)	IC50 (human cathepsin F) [nM]	IC50 (human cathepsin K) [nM]
N#CC1(NC(=O)[C@@H]2CCCC[C@H]2c2nn(-c3ccc(C(O)C(F)(F)F)cc3)cc2-c2ccc(N3CCS(=O)(=O)CC3)cc2)CC1 (mixture of isomers) [Example 113, (1R,2R)-N-(1-cyanocyclopropyl)-2-(4-(4-(1,1-dioxidothiomorpholino)phen-yl)-1-(4-((S and R)-2,2,2-trifluoro-1-hydroxyethyl)phenyl)-1H-pyrazol-3-yl)cyclohexanecarboxamide]	360	0.88
N#CC1(NC(=O)[C@@H]2CC3CC3C[C@H]2c2nn(-c3ccc(F)cc3)cc2-c2ccc(N3CCS(=O)(=O)CC3)cc2)CC1 (single isomer, unassigned) [Example 3, (1S or 1R,3R,4R,6R or 6S)—N-(1-Cyanocyclopropyl)-4-(4-(4-(1,1-dioxidothiomorpholino)phenyl)-1-(4-fluorophenyl)-1H-pyrazol-3-yl)bicyclo[4.1.0]heptane-3-carboxamide]	333	0.84
N#CC1(NC(=O)[C@@H]2CC3CC3C[C@H]2c2nn(-c3ccc(F)cc3)cc2-c2ccc(N3CCS(=O)(=O)CC3)cc2)CC1 (single isomer, unassigned) [Example 4, (1R or 1S,3R,4R,6S or 6R)—N-(1-Cyanocyclopropyl)-4-(4-(4-(1,1-dioxidothiomorpholino)phenyl)-1-(4-fluorophenyl)-1H-pyrazol-3-yl)bicyclo[4.1.0]heptane-3-carboxamide]	258	0.93
CC(C#N)NC(=O)[C@@H]1CCC(F)(F)C[C@H]1c1nn(-c2ccc(F)cn2)cc1-c1ccc(N2CCS(=N)(=O)CC2)cc1 (single isomer, unassigned) [Example 23, (1R,2R)-N-((S or R)-1-cyanoethyl)-4,4-difluoro-2-(1-(5-fluoropyridin-2-yl)-4-(4-(1-imino-1-oxidothiomorpholino)phenyl)-1H-pyrazol-3-yl)cyclohexanecarboxamide]	348	1.07
CN=S1(=O)CCN(c2ccc(-c3cn(-c4ccc(F)cn4)nc3[C@@H]3CC(F)(F)CC[C@H]3C(=O)NC(C)C#N)cc2)CC1 (single isomer, unassigned) [Example 25, (1R,2R)-N-((S or R)-1-cyanoethyl)-4,4-difluoro-2-(1-(5-fluoropyridin-2-yl)-4-(4-(1-(methylimino)-1-oxidothiomorpholino)phenyl)-1H-pyrazol-3-yl)cyclohexanecarboxamide]	431	0.52
N#CC(CC(F)(F)F)NC(=O)[C@@H]1CC(F)(F)CC[C@H]1c1nn2ccccc2c1-c1ccc(N2CCS(=O)(=O)CC2)cc1 (single isomer, unassigned) [Example 74, (1R,2R)-N-((S or R)-1-cyano-3,3,3-trifluoropropyl)-2-(3-(4-(1,1-dioxidothiomorpholino)phen-yl)pyrazolo[1,5-a]pyridin-2-yl)-5,5-difluorocyclohexanecarbox-amide]	252	7.69
N#CC(CC(F)(F)F)NC(=O)[C@@H]1CC(F)(F)CC[C@H]1c1nn2ccccc2c1-c1ccc(N2CCS(=O)(=O)CC2)cc1 (single isomer, unassigned) [Example 75, (1R,2R)-N-((R or S)-1-cyano-3,3,3-trifluoropropyl)-2-(3-(4-(1,1-dioxidothiomorpholino)phen-yl)pyrazolo[1,5-a]pyridin-2-yl)-5,5-difluorocyclohexanecarbox-amide]	21	0.99
CC1(C)CCC(C(=O)NC2(C#N)CC2)C(c2nn(-c3ccc(F)cc3)cc2-c2ccc(N3CCS(=O)(=O)CC3)cc2)C1 (single isomer, unassigned) [Example 116, (1R,2R or 1S,2S)-N-(1-cyanocyclopropyl)-2-(4-(4-(1,1-dioxidothiomorpholino)phen-yl)-1-(4-fluorophenyl)-1H-pyrazol-3-yl)-4,4-dimethylcyclohexanecarbox-amide]	1200	328
CC1(C)CC[C@@H](c2nn(-c3ccc(F)cc3)cc2-c2ccc(N3CCS(=O)(=O)CC3)cc2)[C@H](C(=O)NC2(C#N)CC2)C1 (single isomer, unassigned) [Example 127, (1S,2S) or (1R,2R)-N-(1-cyanocyclopropyl)-2-(4-(4-(1,1-dioxidothiomorpholino)phen-yl)-1-(4-fluorophenyl)-1H-pyrazol-3-yl)-5,5-dimethylcyclohexanecarbox-amide]	632	1.5
N#CC1(NC(=O)[C@@H]2CC3CC3C[C@H]2c2nn(-c3ccc(F)cn3)cc2-c2ccc(N3CCS(=O)(=O)CC3)cc2)CC1 (single isomer, unassigned) [Example 152, (1S,3R,4R,6R) or (1R,3R,4R,6S)-N-(1-cyanocyclopropyl)-4-(4-(4-(1,1-dioxidothiomorpholino)phen-yl)-1-(5-fluoropyridin-2-yl)-1H-pyrazol-3-yl)bicyclo[4.1.0]heptane-3-carboxamide]	338	1.06
N#CC1(NC(=O)[C@@H]2CC3CC3C[C@H]2c2nn(-c3ccc(F)cn3)cc2-c2ccc(N3CCS(=O)(=O)CC3)cc2)CC1 (single isomer, unassigned) [Example 153, (1R,3R,4R,6S) or (1S,3R,4R,6R)-N-(1-cyanocyclopropyl)-4-(4-(4-(1,1-dioxidothiomorpholino)phen-yl)-1-(5-fluoropyridin-2-yl)-1H-pyrazol-3-yl)bicyclo[4.1.0]heptane-3-carboxamide]	265	0.66
N#CC1(NC(=O)[C@@H]2CC3CC3C[C@H]2c2nn(-c3ccc(Cl)cn3)cc2-c2ccc(N3CCS(=O)(=O)CC3)cc2)CC1 (single isomer, unassigned) [Example 154, (1R,3R,4R,6S) or (1S,3R,4R,6R)-4-(1-(5-chloropyridin-2-yl)-4-(4-(1,1-dioxidothiomorpholino)phen-yl)-1H-pyrazol-3-yl)-N-(1-cyanocyclopropyl)bicyclo [4.1.0]heptane-3-carboxamide]	279	0.74
N#CC1(NC(=O)[C@@H]2CC3CC3C[C@H]2c2nn(-c3ccc(Cl)cn3)cc2-c2ccc(N3CCS(=O)(=O)CC3)cc2)CC1 (single isomer, unassigned) [Example 155]	197	0.56
N#CC1CCN(c2ccc(-c3cn(-c4ccc(F)cc4)nc3[C@@H]3CCCC[C@H]3C(=O)NC3(C#N)CC3)cc2)CC1 [Example 1, (1R,2R)—N-(1-Cyanocyclopropyl)-2-(4-(4-(4-cyanopiperidin-1-yl)phenyl)-1-(4-fluorophenyl)-1H-pyrazol-3-yl)cyclohexanecarboxamide]	698	2.72
COc1cccc(-n2cc(-c3ccc(N4CCS(=O)(=O)CC4)cc3)c([C@@H]3CCCC[C@H]3C(=O)NC3(C#N)CC3)n2)c1 [Example 2, (1R,2R)—N-(1-Cyanocyclopropyl)-2-(4-(4-(1,1-dioxidothiomorpholino)phenyl)-1-(3-methoxyphenyl)-1H-pyrazol-3-yl)cyclohexanecarboxamide]	494	0.99
N#CC1(NC(=O)[C@@H]2CCCC[C@H]2c2nn(-c3ccc(F)cn3)cc2-c2ccc(N3CCS(=N)(=O)CC3)cc2)CC1 [Example 5, (1R,2R)—N-(1-Cyanocyclopropyl)-2-(1-(5-fluoropyridin-2-yl)-4-(4-(1-imino-1-oxidothiomorpholino)phenyl)-1H-pyrazol-3-yl)cyclohexanecarboxamide]	877	1.53
CC(C)OC(=O)N1CC(c2ccc(-c3cn(-c4ccc(F)cc4)nc3[C@@H]3CCCC[C@H]3C(=O)NC3(C#N)CC3)cc2)C1 [Example 6, Isopropyl 3-(4-(3-((1R,2R)-2-((1-cyanocyclopropyl)carbamoyl)cyclohexyl)-1-(4-fluorophenyl)-1H-pyrazol-4-yl)phenyl)azetidine-1-carboxylate]	49	0.53
Cc1ccc(-n2cc(-c3ccc(N4CCS(=O)(=O)CC4)cc3)c([C@@H]3CCCC[C@H]3C(=O)NC3(C#N)CC3)n2)nn1 [Example 7, (1R,2R)—N-(1-Cyanocyclopropyl)-2-(4-(4-(1,1-dioxidothiomorpholino)phenyl)-1-(6-methylpyridazin-3-yl)-1H-pyrazol-3-yl)cyclohexanecarboxamide]	517	1.54
N#CC1(NC(=O)[C@@H]2CCCC[C@H]2c2nn(-c3cncc(Cl)c3)cc2-c2ccc(N3CCS(=O)(=O)CC3)cc2)CC1 [Example 8, (1R,2R)-2-(1-(5-Chloropyridin-3-yl)-4-(4-(1,1-dioxidothiomorpholino)phenyl)-1H-pyrazol-3-yl)-N-(1-cyanocyclopropyl)cyclohexanecarboxamide]	215	0.75
CN=S1(=O)CCN(c2ccc(-c3cn(-c4ccc(F)cn4)nc3[C@@H]3CC(F)(F)CC[C@H]3C(=O)NC3(C#N)CC3)cc2)CC1 [Example 9, (1R,2R)—N-(1-Cyanocyclopropyl)-4,4-difluoro-2-(1-(5-fluoropyridin-2-yl)-4-(4-(1-(methylimino)-1-oxidothiomorpholino)phenyl)-1H-pyrazol-3-yl)cyclohexanecarboxamide]	3670	2.56
